We go through two compounds from patent publication US12428681B2, “Markers of totipotency and methods of use” (AGENCY FOR SCIENCE, TECHNOLOGY AND RESEARCH, priority 2017, dated 2025).

Format in all cases: cell-based, mouse
Assay [1] deals with NELFA reporter mESCs. Briefly: Immunofluorescence for 2C-like markers and H1-mCherry in NELFA reporter mESCs. As to the method: (§1) Unless otherwise stated, all mESC lines were cultured in serum-containing ESC medium containing Knockout DMEM, 15% FCS, L-Glutamine, non-essential amino acids, penicillin/streptomycin, 2-mercaptoethanol and supplemented with LIF, 1 μM PD0325901 and 3 µM CHIR99021 (2i′). For serum-free ‘naïve’ culture condition, mESCs were grown in N2B27 medium supplemented with LIF and 2i. For 2-DG experiments, ESCs were grown in serum-containing ESC medium with 4 mM 2-DG (Sigma; D8375) for up to 4 days. For MYC inhibitor treatment, ESCs were grown in serum-containing ESC medium with […] MYC inhibitor, 10058-F4 (Abcam), for 3 days.
For generation of histone H1-mCherry stable mESCs, mouse H1e-mCherry fusion DNA sequence was ordered as a Gblock from IDT, amplified and inserted into the expression plasmid, pCAG-IRES-hygromycin. The pCAG-H1-mCherry-IRES-hygromycin plasmid was linearized with FspI and transfected into both NELFA-StrepHA-P2A-EGFP reporter mESCs and Dox-inducible pTRE-NELFA-StrepHA mESCs. Transfected cells were selected with hygromycin B (150 μg/ml) for 4 days before single colony sub-cloning.
Briefly mESCs were grown on gelatin-coated imaging dishes, fixed in 4% PFA for 10 min at room temperature, permeabilized and blocked in 0.1% TRITON™ X-100/1% BSA for 30 min. Cells were incubated in primary antibodies overnight at 4° C. followed by three washes in blocking buffer. […]

For another assay, the system named is mESCs. Briefly: RT-qPCR of 2C-relevant genes in mESCs. Conditions: 2-DG stimulation alone. As to the method:
Unless otherwise stated, all mESC lines were cultured in serum-containing ESC medium containing Knockout DMEM, 15% FCS, L-Glutamine, non-essential amino acids, penicillin/streptomycin, 2-mercaptoethanol and supplemented with LIF, 1 μM PD0325901 and 3 µM CHIR99021 (2i′). For serum-free ‘naïve’ culture condition, mESCs were grown in N2B27 medium supplemented with LIF and 2i. For 2-DG experiments, ESCs were grown in serum-containing ESC medium with 4 mM 2-DG (Sigma; D8375) for up to 4 days. For MYC inhibitor treatment, ESCs were grown in serum-containing ESC medium with […] MYC inhibitor, 10058-F4 (Abcam), for 3 days. siRNAs were purchased from GE Dharmacon and Qiagen and transfected into mESCs using Lipofectamine RNAiMAX according to manufacturer's instructions. Both forward and reverse transfections were carried out. The final concentration of siRNA used was 40 nM per transfection and the effect of knockdown analyzed at 72 h. 0.5-1 μg of total RNA was used as input for cDNA preparation with the SensiFAST cDNA synthesis kit (Bioline; 65054). Reverse transcription was carried out with standard cycling condition as per manufacturer's instructions. […] Relative gene expression fold change was calculated using the delta delta CT method and statistical significance was assessed using a student's T-test.
(In qPCR the cycle at which signal appears reflects the starting amount.)

Assay [2] deals with NELFA-Strep-HA-P2A-EGFP mESCs. Briefly: Flow cytometry of NELFA^high subpopulation in NELFA reporter mESCs. As to the method: as §1
Mouse ES cells are grown in standard culture medium containing 4 mM of 2-DG inhibitor for 4 days, at 37° C. with 5% CO2. Culture medium containing 2-DG is changed every day during the induction. […] In a second system, where NELFA is under the control of a Dox inducible promoter, the expression is induced by culturing the ES cells with culture medium containing 0.4 μg/mL of Doxycycline for 16 hours at 37° C. with 5% CO2.
For NELFA-StrepHA-P2A-EGFP reporter ESC line, a donor vector harboring a Strep-HA-P2A-EGFP cassette flanked by NELFA left and right homology arms (826 bp and 924 bp respectively) was co-transfected with the CRISPR-Cas9 sgRNA cloning vector, pX458, containing the Nelfa sgRNA sequence ([…])(SEQ ID NO: 1). Positive transfectants were GFP-sorted and targeted single clones validated by genotyping.
FACSAria Cell Sorter (BD Biosciences) was used to quantify the proportion of EGFPpositive and EGFP-negative cells from the reporter mESC lines. The Moflow sorter was used to sort EGFP-positive and EGFP-negative cells for RNA-seq and NoME-seq studies.

The test system of assay [3] is NELFA reporter mESCs. Briefly: RNA-seq transcriptomic profiling of unsorted 2-DG-treated NELFA reporter mESCs. Conditions: adjusted p-value≤0.01 and fold-change≥2. As to the method: as §1, with “3 days. […]” for “3 days.”
Single- and Paired-end raw sequencing reads were trimmed with Trim Galore (v0.4.2_dev; www.bioinformatics.babraham.ac.uk/projects/trim_galore/) with parameters: --trim-n (single-end, NELFA reporter mESCs) or -paired (paired-end, Doxinducible NELFA-EGFP and 2DG-treated NELFA reporter mESCs). Cleaned reads were then mapped to the mouse GRCm38 reference genome, guided by the vM9 gene model from the GENCODE project using the RSEM pipeline (v1.1.11). […] Reads mapping and quantification of individual repetitive element expression were carried out by using the RepEnrich pipeline, which takes a two-step approach. Briefly, reads were mapped to the mouse genome (mm10) by Bowtie (v1.1.2), and separated into multiple-mapped and uniquely mapped reads. […]

Turning to `O=CC[C@@H](O)[C@H](O)[C@H](O)CO` [2-DG, 2-deoxy-D-glucose], the “expression of MERVL family of retrotransposons and Zscan4 by immunofluorescence” value with NELFA reporter mESCs [1] (2-DG-treated NELFA-positive mESCs) is “upregulation”. In the assay with NELFA reporter mESCs [1] (NELFA-EGFP reporter mESCs stably expressing H1-mCherry, following 2-DG treatment), the “H1 localization on heterochromatin in NELFA^high mESCs” value is given as “clear displacement”. Also, the “induction of Gata3 by RT-qPCR” value with mESCs is on record as “not observed”. In addition, in assay [2] (NELFA reporter mESCs, conventional culture conditions, 4 mM 2-DG, 4 days), the “increase in the NELFA^high subpopulation following 2-DG treatment” value is reported as “up to 8 fold”. The “change in Nelfa^high ESC subpopulation (in words)” value in assay [2] (addition of 2-DG to Nelfa reporter ESCs) is reported as “prominent increase”. In addition, in the assay with NELFA reporter mESCs [3], the “number of genes upregulated after 2-DG treatment” value turned out to be 175 genes.
In the case of `CCc1ccc(/C=C2/SC(=S)NC2=O)cc1` [10058-F4], in assay [2] (NELFA reporter mESCs, 64 µM MYC inhibitor 10058-F4, 3 days), the “change in NELFA^high population (in words)” value is recorded as “no increase”.
